In patent US9533961B2, “Molecules having certain pesticidal utilities, and intermediates, compositions, and processes related thereto” (priority 2014, dated 2017):

Legend:
Type in all cases: in vivo
[1] = system: Yellow Fever Mosquito (Aedes aegypti, AEDSAE) ("YFM"); assay: Bioassay on Yellow Fever Mosquito (YFM), 96-well plate larval assay; details: about 1 day-old larvae, from 4000 ppm master plate, scored on mortality after 3 days
Method: Certain molecules disclosed in this document were tested against YFM using procedures described in the following paragraph. In the reporting of the results, the “YFM Rating Table” was used (See Table Section).
Master plates containing 400 μg of a molecule dissolved in 100 μL of dimethyl sulfoxide (DMSO) (equivalent to a 4000 ppm solution) are used. A master plate of assembled molecules contains 15 μL per well. To this plate, 135 μL of a 90:10 water:acetone mixture is added to each well. A robot (Biomek® NXP Laboratory Automation Workstation) is programmed to dispense 15 μL aspirations from the master plate into an empty 96-well shallow plate (“daughter” plate). There are 6 reps (“daughter” plates) created per master. The created daughter plates are then immediately infested with YFM larvae.
The day before plates are to be treated, mosquito eggs are placed in Millipore water containing liver powder to begin hatching (4 g. into 400 mL). After the daughter plates are created using the robot, they are infested with 220 μL of the liver powder/larval mosquito mixture (about 1 day-old larvae). After plates are infested with mosquito larvae, a non-evaporative lid is used to cover the plate to reduce drying. Plates are held at room temperature for 3 days prior to grading. After 3 days, each well is observed and scored based on mortality.

[2] = system: Green Peach Aphid (Myzus persicae, MYZUPE) ("GPA"); assay: Bioassay on Green Peach Aphid (GPA), foliar spray on cabbage seedlings; details: 72 h, 200 ppm foliar spray on cabbage seedlings, three days, Abbott corrected % control, read-out: GPA % Control (or Mortality) rating
Method: Certain molecules disclosed in this document were tested against GPA using procedures described in the following example. In the reporting of the results, the “GPA Rating Table” was used (See Table Section).
Cabbage seedlings grown in 3-inch pots, with 2-3 small (3-5 cm) true leaves, were used as test substrate. The seedlings were infested with 20-50 GPA (wingless adult and nymph stages) one day prior to chemical application. Four pots with individual seedlings were used for each treatment. Test compounds (2 mg) were dissolved in 2 mL of acetone/methanol (1:1) solvent, forming stock solutions of 1000 ppm test compound. The stock solutions were diluted 5× with 0.025% Tween 20 in water to obtain the solution at 200 ppm test compound. A hand-held aspirator-type sprayer was used for spraying a solution to both sides of […] leaves until runoff. Reference plants (solvent check) were sprayed with the diluent only containing 20% by volume of acetone/methanol (1:1) solvent. Treated plants were held in a holding room for three days at approximately 25° C. and ambient relative humidity (RH) prior to grading. Evaluation was conducted by counting the number of live aphids per plant under a microscope. Percent Control was measured by using Abbott's correction formula (W. S. Abbott, “A Method of Computing the Effectiveness of an Insecticide” J. Econ. Entomol. 18 (1925), pp. 265-267) as follows. Corrected % Control=100*(X−Y)/X • where • X=No. of live aphids on solvent check plants and • Y=No. of live aphids on treated plants

[3] = system: Beet Armyworm (Spodoptera exigua, LAPHEG) ("BAW"); assay: Bioassay on Beet Armyworm (BAW), 128-well diet tray assay; details: 168 h, 50 μg/cm^2 on artificial diet, second instar larvae, five to seven days, 25° C., average of eight wells, read-out: BAW % Control (or Mortality) rating
Method: (§1) Certain molecules disclosed in this document were tested against BAW and CEW using procedures described in the following examples. In the reporting of the results, the “BAW & CL Rating Table” was used (See Table Section).
Bioassays on BAW were conducted using a 128-well diet tray assay. one to five second instar BAW larvae were placed in each well (3 mL) of the diet tray that had been previously filled with 1 mL of artificial diet to which 50 μg/cm^2 of the test compound (dissolved in 50 μL of 90:10 acetone-water mixture) had been applied (to each of eight wells) and then allowed to dry. Trays were covered with a clear self-adhesive cover and held at 25° C., 14:10 light-dark for five to seven days. Percent mortality was recorded for the larvae in each well; activity in the eight wells was then averaged. The results are indicated in the table entitled “Table ABC: Biological Results” (See Table Section).

[4] = system: Cabbage Looper (Trichoplusia ni, TRIPNI) ("CL"); assay: Bioassay on Cabbage Looper (CL), 128-well diet tray assay; details: 168 h, read-out: CL % Control (or Mortality) rating
Method: as §1
Bioassays on CL were conducted using a 128-well diet tray assay. one to five second instar CL larvae were placed in each well (3 mL) of the diet tray that had been previously filled with 1 mL of artificial diet to which 50 μg/cm^2 of the test compound (dissolved in 50 μL of 90:10 acetone-water mixture) had been applied (to each of eight wells) and then allowed to dry. Trays were covered with a clear self-adhesive cover and held at 25° C., 14:10 light-dark for five to seven days. Percent mortality was recorded for the larvae in each well; activity in the eight wells was then averaged. The results are indicated in the table entitled “Table ABC: Biological Results” (See Table Section).

| SMILES | YFM % Control (or Mortality) rating [1] | mortality at 200 ppm [2] | mortality at 50 µg/cm2 [3] | mortality at 50 µg/cm2 [4] |
| --- | --- | --- | --- | --- |
| CC(C)c1cccc(C(=O)NCCc2ccc(-c3ncn(-c4ccc(OC(F)(F)F)cc4)n3)cc2)c1 [F41, 3-Isopropyl-N-(4-(1-(4-(trifluoromethoxy)phenyl)-1H-1,2,4-triazol-3-yl)phenethyl)benzamide] | D (No activity noticed in this bioassay) | 0% | 0% | 50 to 100% |
| O=C(Nc1ccc(-c2ncn(-c3ccc(OC(F)(F)F)cc3)n2)cc1)c1ccccc1Nc1ccccc1 [F7, 2-(phenylamino)-N-(4-(1-(4-(trifluoromethoxy)phenyl)-1H-1,2,4-triazol-3-yl)phenyl)benzamide] | A (80-100) | 0 to 80% | 50 to 100% | 50 to 100% |
